# Counter-ions that a name gives are not always drawn.
# Key:
# [1] = Solubility of salts of Compound 2 and free base in distilled water (gravimetric); format: physicochemical; conditions: for Solubility (mg solid/mL water): distilled water, RT, stirred 3 days, gravimetric; for XRPD Pattern Recovered: solid recovered after slurry in water at RT
# Experimental: Solubility of the scaled-up salts of Compound 2 and free base Compound 2 was assessed in distilled water at RT. Approximately 30 mg of solid was weighed directly into 2 mL vials, and a 6 mm stir bar was added to each vial. Water was then incrementally added to the vials (starting with 1 vol.) and the resulting slurries were left to stir for 10-15 min prior to the next addition. As all solids remained in slurries upon the addition of 1 mL of water, the gravimetric method was adopted, and the vials were stirred at RT for 3 days before centrifuging. Supernatant solutions were recovered and evaporated to dryness at 50° C. in atmosphere on a hot plate, then placed at 50° C. under vacuum (˜−29 inHg) for 3 h before final weighing.
# [2] = Salt screen of Compound 2: XRPD after drying and humidification; conditions: vacuum 50° C. at least 3 h, >95% RH overnight
# [3] = Solid-form stability study of salts of Compound 2 (75% RH, 40° C., 7 days); format: physicochemical; conditions: for Purity (%) After / Purity (%) Before: HPLC; for Purity (%) After / XRPD Pattern After: after 7 days at 75% RH and 40° C.; for Purity (%) Before: before stress test
# Experimental: Solid-form stability studies were completed by weighing approximately 30 mg each of Form A of the camsylate, esylate, mesylate, and sulfate salts of Compound 2 into 4 mL vials and covering with a Kimwipe. The vials were placed inside a humidity chamber set to 75% RH at 40° C. for 7 days. The HPLC and XRPD data was collected to confirm the purity and identity of the solid forms. The four salts were physically and chemically stable. No decrease in purity (i.e. less than 0.1%) or form change was observed after a seven-day stress test at 75% relative humidity (RH) and 40° C. (Table 5).
# ROS1-positive NSCLC = ROS1-positive NSCLC patients; cited from earlier work
# [4] = Solvent solubility screen; format: physicochemical; conditions: organic solvent or mixture, thermodynamic from solid; majority of the solvents investigated
# Text: Solids were recovered from these solutions by the addition of anti-solvent to give an indication of solid form, with Form 2 predominantly observed.
# [5] = Stability study of Compound 1 drug substance; format: physicochemical; conditions: for Chemical and physical stability (description, assay, related substances, water content, polymorphic form, chiral purity): 1 month / three months (Example 10)
# Experimental: A stability study is conducted for Compound 1. Samples were stored at: 30° C.±2° C./65%±5% Relative Humidity (RH), or 40° C.±2° C./75%±5% RH. At regular intervals (e.g., initial, 1, 3, 6, 9, 12, 18, 24, and 36 months), tests are performed for description, assay, related substances, water content, polymorphic form, and chiral purity.
# A stability study was conducted for Compound 1 crystalline free base Form 2. Samples were stored at: (1) 30° C.±2° C./65%±5% Relative Humidity (RH), with data collected at 0, 1, 3, 6, 9, and 12 months; and (2) 40° C.±2° C./75%±5% RH, with data collected at 0, 1, 3, and 6 months. At the indicated time points, tests were performed for description, assay, related substances, water content, polymorphic form, and chiral purity.
# [6] = Dynamic vapour sorption (DVS); format: physicochemical; conditions: relative humidity from about 0 to about 90%, about 25° C.
# Experimental: In one embodiment, the solid form is characterized by a DVS isotherm that matches the DVS isotherm depicted in FIG. 6. In one embodiment, the DVS isotherm is as measured at about 25° C.
# Approximately, 10-20 mg of sample was placed into a mesh vapour sorption balance pan and loaded into a DVS Advantage dynamic vapour sorption balance by Surface Measurement Systems. The sample was subjected to a ramping profile from 40-90% relative humidity (RH) at 10% increments, maintaining the sample at each step until a stable weight had been achieved (dm/dt 0.004%, minimum step length 30 minutes, maximum step length 500 minutes) at 25° C. After completion of the sorption cycle, the sample was dried using the same procedure to 0% RH and then a second sorption cycle back to 40% RH. Two cycles were performed. The weight change during the sorption/desorption cycles were plotted, allowing for the hygroscopic nature of the sample to be determined. XRPD analysis was then carried out on any solid retained.
SMILES,Solubility (mg solid/mL water) [1] [mg solid/mL water],XRPD Pattern Recovered [1],Stability of crystalline salt pattern to drying and humidification [2],Purity (%) After [3] [%],Purity (%) Before [3] [%],XRPD Pattern After [3],further results
CCn1cc(Cc2cn(C)nc2-c2ccc(F)cc2[C@@H](C)Oc2cc(Br)cnc2N)c(Cl)n1 [Camsylate Salt],<3,Form A,stable to drying and humidification,99.65,99.59,Form A,
C[C@@H](Oc1cc(-c2cnn(C3CCNCC3)c2)cnc1N)c1c(Cl)ccc(F)c1Cl [Crizotinib],,,,,,,Median progression-free survival (ROS1-positive NSCLC): 9-19 months
CCn1cc(Cc2cn(C)nc2-c2ccc(F)cc2[C@@H](C)Oc2cc(Br)cnc2N)c(Cl)n1 [Esylate Salt],5,Form A,stable to drying and humidification,99.75,99.75,Form A,
CCn1nc(Cl)c2c1-c1cnc(N)c(c1)O[C@H](C)c1cc(F)ccc1-c1nn(C)cc1C2 [lyophilized material],,,,,,,solubility [4]: > 150 mg/mL
CCn1nc(Cl)c2c1-c1cnc(N)c(c1)O[C@H](C)c1cc(F)ccc1-c1nn(C)cc1C2 [Form 2],,,,,,,"Chemical and physical stability (description, assay, related substances, polymorphic form, chiral purity) ([5]; 30° C.±2° C./65%±5% RH, 12 months (Example 21)): no meaningful change; Chemical and physical stability (description, assay, related substances, polymorphic form, chiral purity) ([5]; 40° C.±2° C./75%±5% RH, 6 months (Example 21)): no meaningful change; DVS weight increase [6]: about 0.3%"
CCn1nc(Cl)c2c1-c1cnc(N)c(c1)O[C@H](C)c1cc(F)ccc1-c1nn(C)cc1C2 [Compound 1],,,,,,,"Chemical and physical stability (description, assay, related substances, water content, polymorphic form, chiral purity) ([5]; 30° C.±2° C./65%±5% RH): No meaningful changes; Chemical and physical stability (description, assay, related substances, water content, polymorphic form, chiral purity) ([5]; 40° C.±2° C./75%±5% RH): No meaningful changes"
CCn1cc(Cc2cn(C)nc2-c2ccc(F)cc2[C@@H](C)Oc2cc(Br)cnc2N)c(Cl)n1 [Sulfate Salt],<3,Form A,stable to drying and humidification,99.97,99.97,Form A,
CCn1cc(Cc2cn(C)nc2-c2ccc(F)cc2[C@@H](C)Oc2cc(Br)cnc2N)c(Cl)n1 [Mesylate Salt],8,Form A,stable to drying and humidification,99.94,99.92,Form A,

# Reference: patent publication US20230322797A1, “SOLID FORMS, PHARMACEUTICAL COMPOSITIONS AND PREPARATION OF HETEROAROMATIC MACROCYCLIC ETHER COMPOUNDS” (Nuvalent, Inc., priority 2022, published 2023)
